Source: ChEMBL document CHEMBL1143762, “CP5484, a novel quaternary carbapenem with potent anti-MRSA activity and reduced toxicity” (Bioorg Med Chem, 2007)
In brackets after ≈: the same amount, converted by molar mass.

How the values were obtained:
Mus musculus = experiment: Acute toxicity in iv dosed ICR mouse assessed as mortality after 24 hrs; type: organism-based; conditions: in vivo
Staphylococcus aureus [1] = experiment: Antibacterial activity against Staphylococcus aureus 209P JC1; type: functional
Staphylococcus aureus [2] = experiment: Antibacterial activity against methicillin-resistant Staphylococcus aureus M126; type: functional
Staphylococcus aureus [3] = experiment: Antibacterial activity against carbapenem-resistant Staphylococcus aureus M126 HR; type: functional
[4] = Urinary excretion of compound in mouse at 20 mg/kg, iv administered with 10 mg/kg cilastatin; type: ADME, organism-based; conditions: urine, read-out: Activity
[5] = Half life in mouse at 20 mg/kg, iv administered with 10 mg/kg cilastatin; type: ADME, organism-based; conditions: in vivo
Haemophilus influenzae = experiment: Antibacterial activity against beta lactamase positive amoxicillin/clavulanic acid-resistant Haemophilus influenzae PRC44; type: functional
[6] = Volume of distribution at steady state in mouse at 20 mg/kg, iv administered with 10 mg/kg cilastatin; type: ADME, organism-based; conditions: in vivo, read-out: Vss
Staphylococcus aureus [7] = experiment: Antibacterial activity against penicillin-resistant Staphylococcus aureus PRC9; type: functional
Staphylococcus aureus [8] = experiment: Protective effect against methicillin-resistant Staphylococcus aureus MF126 systemic infection in ICR mouse dosed sc twice a day; type: functional
Escherichia coli = experiment: Antibacterial activity against Escherichia coli NIHJ JC2; type: functional
Serum [9] = experiment: Protein binding in human serum by equilibrium dialysis method; type: ADME, cell-free
Moraxella catarrhalis = experiment: Antibacterial activity against Moraxella catarrhalis W-0500; type: functional
Serum [10] = experiment: Protein binding in mouse serum by equilibrium dialysis method; type: ADME, cell-free
Staphylococcus aureus [11] = experiment: Antibacterial activity against methicillin-resistant Staphylococcus aureus; type: functional
[12] = AUC (0-infinity) in mouse at 20 mg/kg, iv administered with 10 mg/kg cilastatin; type: ADME, organism-based; set-up: dose 20 mg/kg, route intravenous, time infinity; conditions: plasma
[13] = Total clearance in mouse at 20 mg/kg, iv administered with 10 mg/kg cilastatin; type: ADME, organism-based; conditions: in vivo
Klebsiella pneumoniae = experiment: Antibacterial activity against Klebsiella pneumoniae PCI602; type: functional
Staphylococcus aureus [14] = experiment: Antibacterial activity against methicillin-resistant Staphylococcus aureus MF126; type: functional
Pseudomonas aeruginosa = experiment: Antibacterial activity against Pseudomonas aeruginosa PAO1; type: functional

Structure (SMILES) | MLD (Mus musculus) [mg/kg] | MIC (Staphylococcus aureus [1]) [µg/mL] | MIC (Staphylococcus aureus [2]) [µg/mL] | MIC (Staphylococcus aureus [3]) [µg/mL] | further results
CSc1c2sc(C3=C(C(=O)[O-])N4C(=O)[C@H]([C@@H](C)O)[C@H]4[C@H]3C)cn2c[n+]1CCN | 500 | < 0.006 | 0.78 (≈ 1.85 µM) | 3.13 (≈ 7.41 µM) | 
CSc1c2sc(C3=C(C(=O)[O-])N4C(=O)[C@H]([C@@H](C)O)[C@H]4[C@H]3C)cn2c[n+]1Cc1cccc(CSC(=N)N)c1 | 250 | < 0.006 | 0.39 (≈ 0.699 µM) | 0.78 (≈ 1.4 µM) | 
CSc1c2sc(C3=C(C(=O)[O-])N4C(=O)[C@H]([C@@H](C)O)[C@H]4[C@H]3C)cn2c[n+]1[C@@H]1CN[C@H](C(=O)N(C)C)C1 |  | 0.025 (≈ 0.0481 µM) | 3.13 (≈ 6.02 µM) | 6.25 (≈ 12 µM) | 
CO[C@H](CN)C[n+]1cn2cc(C3=C(C(=O)[O-])N4C(=O)[C@H]([C@@H](C)O)[C@H]4[C@H]3C)sc2c1SC | > 500 | < 0.006 | 0.78 (≈ 1.67 µM) | 3.13 (≈ 6.71 µM) | 
CSc1c2sc(C3=C(C(=O)[O-])N4C(=O)[C@H]([C@@H](C)O)[C@H]4[C@H]3C)cn2c[n+]1C[C@@H](CN)OCF | 500 | < 0.006 | 0.78 (≈ 1.61 µM) | 3.13 (≈ 6.46 µM) | 
CSc1c2sc(C3=C(C(=O)[O-])N4C(=O)[C@H]([C@@H](C)O)[C@H]4[C@H]3C)cn2c[n+]1CCSCCN |  | < 0.006 | 0.39 (≈ 0.808 µM) | 1.56 (≈ 3.23 µM) | 
CSc1c2sc(C3=C(C(=O)[O-])N4C(=O)[C@H]([C@@H](C)O)[C@H]4[C@H]3C)cn2c[n+]1CCS(=O)(=O)CCN | > 500 | < 0.006 | 0.78 (≈ 1.52 µM) | 3.13 (≈ 6.08 µM) | 
CSc1c2sc(C3=C(C(=O)[O-])N4C(=O)[C@H]([C@@H](C)O)[C@H]4[C@H]3C)cn2c[n+]1CCCCCCN | 250 | < 0.006 | 0.78 (≈ 1.63 µM) | 1.56 (≈ 3.26 µM) | 
CSc1c2sc(C3=C(C(=O)[O-])N4C(=O)[C@H]([C@@H](C)O)[C@H]4[C@H]3C)cn2c[n+]1C1CCNCC1 |  | 0.013 (≈ 0.0281 µM) | 1.56 (≈ 3.37 µM) | 3.13 (≈ 6.77 µM) | 
CSc1c2sc(C3=C(C(=O)[O-])N4C(=O)[C@H]([C@@H](C)O)[C@H]4[C@H]3C)cn2c[n+]1C[C@@H]1CCCN1 |  | < 0.006 | 0.78 (≈ 1.69 µM) | 3.13 (≈ 6.77 µM) | 
CSc1c2sc(C3=C(C(=O)[O-])N4C(=O)[C@H]([C@@H](C)O)[C@H]4[C@H]3C)cn2c[n+]1CCCNC=N |  | < 0.006 | 0.78 (≈ 1.68 µM) | 3.13 (≈ 6.75 µM) | 
CSc1c2sc(C3=C(C(=O)[O-])N4C(=O)[C@H]([C@@H](C)O)[C@H]4[C@H]3C)cn2c[n+]1CCCCN |  | < 0.006 | 0.78 (≈ 1.73 µM) | 1.56 (≈ 3.46 µM) | 
CSc1c2sc(C3=C(C(=O)[O-])N4C(=O)[C@H]([C@@H](C)O)[C@H]4[C@H]3C)cn2c[n+]1CCCN | 250 | < 0.006 | 0.78 (≈ 1.79 µM) | 1.56 (≈ 3.57 µM) | 
CSc1c2sc(C3=C(C(=O)[O-])N4C(=O)[C@H]([C@@H](C)O)[C@H]4[C@H]3C)cn2c[n+]1CC(N)=O |  | < 0.006 | 1.56 (≈ 3.57 µM) | 3.13 (≈ 7.17 µM) | 
CSc1c2sc(C3=C(C(=O)[O-])N4C(=O)[C@H]([C@@H](C)O)[C@H]4[C@H]3C)cn2c[n+]1[C@@H]1CN[C@H](C(=O)O)C1 |  | 0.025 (≈ 0.0508 µM) | 3.13 (≈ 6.35 µM) | 6.25 (≈ 12.7 µM) | 
CSc1c2sc(C3=C(C(=O)[O-])N4C(=O)[C@H]([C@@H](C)O)[C@H]4[C@H]3C)cn2c[n+]1[C@H]1CCNC1 | 500 | < 0.006 | 0.78 (≈ 1.74 µM) | 1.56 (≈ 3.48 µM) | 
CSc1c2sc(C3=C(C(=O)[O-])N4C(=O)[C@H]([C@@H](C)O)[C@H]4[C@H]3C)cn2c[n+]1CCCNC(C)=N |  | < 0.006 | 0.78 (≈ 1.63 µM) | 3.13 (≈ 6.55 µM) | 
CSc1c2sc(C3=C(C(=O)[O-])N4C(=O)[C@H]([C@@H](C)O)[C@H]4[C@H]3C)cn2c[n+]1C[C@H](O)CN | > 500 | < 0.006 | 0.78 (≈ 1.72 µM) | 1.56 (≈ 3.45 µM) | dose excreted [4]: 41.9%; half-life [5]: 13.4 min; MIC (Haemophilus influenzae): 0.78 µg/mL; Vd [6]: 0.34 L/kg; MIC (Staphylococcus aureus [7]): 0.05 µg/mL (≈ 0.11 µM); ED50 (Staphylococcus aureus [8]): 0.039 mg; MIC (Escherichia coli): 0.05 µg/mL (≈ 0.11 µM); Activity (Serum [9]): 12.2%; MIC (Moraxella catarrhalis): 0.05 µg/mL (≈ 0.11 µM); Activity (Serum [10]): 16%; MIC50 (Staphylococcus aureus [11]): 0.78 µg/mL (≈ 1.72 µM); MIC90 (Staphylococcus aureus [11]): 1.56 µg/mL (≈ 3.45 µM); AUC(0-inf) [12]: 12600 ng·h/mL; clearance [13]: 26.8 mL/min/kg; MIC (Klebsiella pneumoniae): 0.1 µg/mL (≈ 0.221 µM); MIC (Staphylococcus aureus [14]): 1.56 µg/mL (≈ 3.45 µM); MIC (Pseudomonas aeruginosa): 6.25 µg/mL (≈ 13.8 µM)
CSc1c2sc(C3=C(C(=O)[O-])N4C(=O)[C@H]([C@@H](C)O)[C@H]4[C@H]3C)cn2c[n+]1[C@H]1CCN(C(C)=N)C1 |  | < 0.006 | 1.56 (≈ 3.19 µM) | 3.13 (≈ 6.39 µM) | 
CSc1c2sc(C3=C(C(=O)[O-])N4C(=O)[C@H]([C@@H](C)O)[C@H]4[C@H]3C)cn2c[n+]1CCCSC(=N)N | 250 | < 0.006 | 0.39 (≈ 0.787 µM) | 1.56 (≈ 3.15 µM) | 
CSc1c2sc(C3=C(C(=O)[O-])N4C(=O)[C@H]([C@@H](C)O)[C@H]4[C@H]3C)cn2c[n+]1[C@@H]1CN[C@H](CO)C1 |  | < 0.006 | 0.78 (≈ 1.63 µM) | 3.13 (≈ 6.54 µM) | 
COC(=O)[C@@H]1C[C@H]([n+]2cn3cc(C4=C(C(=O)[O-])N5C(=O)[C@H]([C@@H](C)O)[C@H]5[C@H]4C)sc3c2SC)CN1 |  | 0.013 (≈ 0.0257 µM) | 1.56 (≈ 3.08 µM) | 6.25 (≈ 12.3 µM) | 
CSc1c2sc(C3=C(C(=O)[O-])N4C(=O)[C@H]([C@@H](C)O)[C@H]4[C@H]3C)cn2c[n+]1C[C@H](C)CN | 500 | < 0.006 | 0.78 (≈ 1.73 µM) | 1.56 (≈ 3.46 µM) | 
C[C@@H](O)[C@H]1C(=O)N2C(C(=O)O)=C(SCCNC=N)C[C@H]12 [IMIPENEM ANHYDROUS] |  | 0.013 (≈ 0.0434 µM) | 25 (≈ 83.5 µM) | 100 (≈ 334 µM) | MIC (Haemophilus influenzae): 3.13 µg/mL; MIC (Staphylococcus aureus [7]): 0.39 µg/mL (≈ 1.3 µM); MIC (Escherichia coli): 0.1 µg/mL (≈ 0.334 µM); MIC (Moraxella catarrhalis): 0.05 µg/mL (≈ 0.167 µM); MIC (Klebsiella pneumoniae): 0.39 µg/mL (≈ 1.3 µM); MIC (Pseudomonas aeruginosa): 1.56 µg/mL (≈ 5.21 µM)
CN[C@H](CC(C)C)C(=O)N[C@H]1C(=O)N[C@@H](CC(N)=O)C(=O)N[C@H]2C(=O)N[C@H]3C(=O)N[C@H](C(=O)N[C@H](C(=O)O)c4cc(O)cc(O)c4-c4cc3ccc4O)[C@H](O)c3ccc(c(Cl)c3)Oc3cc2cc(c3O[C@@H]2O[C@H](CO)[C@@H](O)[C@H](O)[C@H]2O[C@H]2C[C@](C)(N)[C@H](O)[C@H](C)O2)Oc2ccc(cc2Cl)[C@H]1O [VANCOMYCIN] |  | 0.78 (≈ 0.538 µM) | 1.56 (≈ 1.08 µM) | 1.56 (≈ 1.08 µM) | ED50 (Staphylococcus aureus [8]): 0.18 mg; MIC50 (Staphylococcus aureus [11]): 1.56 µg/mL (≈ 1.08 µM); MIC90 (Staphylococcus aureus [11]): 1.56 µg/mL (≈ 1.08 µM); MIC (Staphylococcus aureus [14]): 0.78 µg/mL (≈ 0.538 µM)
